Laboratory results from patent US12053506B2, “Romo1-derived antimicrobial peptides and variants thereof” (priority 2019, dated 2024).
Like-named read-outs stand apart in the source and are kept apart here. No end group written: not given here.

Legend:
[1] = tested on: methicillin-resistant Staphylococcus aureus (ATCC 33591); conditions: for MBC MRSA: Tables 11-15, no unit printed
[2] = Toxicity in vivo after intravenous injection; parameters: species or system mouse (C57BL/6); conditions: 100 mg/kg intravenous
Experimental: At this time, the maximum volume of the injection dose was 150 μl.

[3] = tested on: CRPA; assay: MBC, evaluation of antibacterial activities of KU-5878 variants; format: cell-based; conditions: Tables 11-15, no unit printed
[4] = tested on: Multidrug-resistant K. pneumoniae; conditions: Multidrug-resistant
Experimental: (§1) The minimum bactericidal concentration assay was the same as the method used in Example 1.
(§2) Specifically, each type of bacteria was cultured in 3% (w/v) TSB (Tryptic Soy Broth) liquid medium at 37° C. and 200 rpm for 4 hours, and then further cultured under the same conditions for 3 hours to a concentration of 5×10^6 CFU/ml. Strain solutions were prepared by diluting each of the […] of 2×10^5 CFU/ml.
(§3) Then, the KU-5878 peptide at varying concentrations (0 μg/ml to 300 μg/ml) was dispensed into each well of a 96-well microplate, and 100 μl (1×10^5 CFU/ml) of each of the prepared strain solutions was added thereto, mixed therewith, and allowed to react with the peptide in an incubator at 37° C. for 1 hour.
(§4) In addition, 10 μl of each reaction solution of the peptide and the strain was plated on the TS agar plate at a constant size, and incubated in an incubator at 37° C. for 18 hours, and then colony formation on the plate was checked.
(§5) Meanwhile, the multidrug-resistant Pseudomonas aeruginosa, multidrug-resistant Acinetobacter and multidrug-resistant Klebsiella in Table 2 below were bacteria isolated from patients at Korea University Anam Hospital. […] Then, these bacteria were used in the experiment.

[5] = tested on: Multidrug-resistant A. baumannii; conditions: Multidrug-resistant
Experimental: as §1, §2, §3, §4, §5

For KTMMQSGGTFGTFMAIGMGIR [KU-5878], the “MBC value (μg/ml) against methicillin-resistant Staphylococcus aureus” value ([1]; ATCC 33591, 4 h) was 100 µg/mL, the MBC MRSA [1] was 110 µg/mL and the MBC MRSA ([1]; listed as 5878) was 100 µg/mL. For the same sequence, the “survival of mice after injection” value ([2]; 12 days) was “all survived”, the “effect on the weight of the mice” value ([2]; weights at 24-hour intervals for 12 days, FIG. 7) was “no effect on the weight of the mice” and the MBC CRPA [3] was 110 µg/mL. The “MBC value (μg/ml), Multidrug-resistant K. pneumoniae” value [4] was 100 µg/mL and the “MBC value (μg/ml), Multidrug-resistant A. baumannii” value [5] was 110 µg/mL.
